We go through 8 compounds from paper PMC3634507 (International Journal of Molecular Sciences, 2013).

What is called IC50 is the concentration needed to halve the response being measured.

Values joined by “and” are separate entries in the source; they are usually repeats but may differ in a detail not shown here. Equal entries are not always repeated. Where two headings read alike, the source gives them in different places.

Assay [1] addresses T1, AChE from Electrophorus electricus (Electrophorus electricus, UniProt O42275).
T1 construct: purchased Sigma-Aldrich
Put plainly: Ellman's assay, AChE inhibition. Type of assay: biochemical. For orientation: In Ellman's method for cholinesterases, released thiocholine reacts with DTNB.

For assay [2], the target named is T2, BuChE from horse serum (Equus caballus, UniProt P81908).
T2 construct: BuChE from horse serum (2.5 units/1 mL); purchased Sigma-Aldrich; host or cells: horse serum
Put plainly: biochemical. As to the method: The activity against acetylcholinesterases from electric eel and butyrylcholinesterase from horse serum was determined in spectrophotometric Ellman’s assay.
The activity against cholinesterases was determined in spectrophotometric Ellman’s assay.
The reaction took place in 100 mM phosphate buffer, pH 8.0, containing 0.25 units of AChE or BuChE, 0.3 mmol 5,5′-dithio-bis-(2-nitrobenzoic) acid (DTNB) and 0.45 mmol acetylthiocholine or butyrylthiocholine as substrates. The tested compounds were incubated with the enzyme for 5 min at 25 °C prior to starting the reaction by adding the substrate.

The target in assay [3] is T1, AChE from Electrophorus electricus. As to conditions: Ellman's assay, compounds 7-9 ref 39, cited from earlier work.
The mark [4] stands for this setting: AChE IC50, Ellman's assay, electric eel AChE, pH 8.0, 25 °C.
Setting [5] is: Ellman's assay, horse serum BuChE, pH 8.0, 25 °C, n.a.: not active, read-out: BuChE IC50.
Setting [6] is: electric eel AChE, read-out: AChE IC50.

T2 sequence (P81908 whole entry): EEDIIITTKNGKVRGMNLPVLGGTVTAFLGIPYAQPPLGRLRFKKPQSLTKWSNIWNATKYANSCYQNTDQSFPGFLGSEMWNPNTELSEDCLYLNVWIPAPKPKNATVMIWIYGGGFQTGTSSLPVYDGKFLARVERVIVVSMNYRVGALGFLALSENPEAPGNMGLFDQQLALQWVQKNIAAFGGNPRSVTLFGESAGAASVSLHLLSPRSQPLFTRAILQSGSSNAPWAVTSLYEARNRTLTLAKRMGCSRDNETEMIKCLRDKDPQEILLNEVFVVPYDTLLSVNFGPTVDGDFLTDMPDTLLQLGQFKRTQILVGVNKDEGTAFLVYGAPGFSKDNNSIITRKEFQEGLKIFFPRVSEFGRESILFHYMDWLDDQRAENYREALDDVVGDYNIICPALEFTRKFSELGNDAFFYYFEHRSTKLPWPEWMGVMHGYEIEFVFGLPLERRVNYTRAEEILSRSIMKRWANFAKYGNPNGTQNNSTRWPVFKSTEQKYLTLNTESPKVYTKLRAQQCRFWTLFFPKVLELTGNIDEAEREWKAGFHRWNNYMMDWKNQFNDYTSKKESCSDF
T1 sequence (O42275 24-633): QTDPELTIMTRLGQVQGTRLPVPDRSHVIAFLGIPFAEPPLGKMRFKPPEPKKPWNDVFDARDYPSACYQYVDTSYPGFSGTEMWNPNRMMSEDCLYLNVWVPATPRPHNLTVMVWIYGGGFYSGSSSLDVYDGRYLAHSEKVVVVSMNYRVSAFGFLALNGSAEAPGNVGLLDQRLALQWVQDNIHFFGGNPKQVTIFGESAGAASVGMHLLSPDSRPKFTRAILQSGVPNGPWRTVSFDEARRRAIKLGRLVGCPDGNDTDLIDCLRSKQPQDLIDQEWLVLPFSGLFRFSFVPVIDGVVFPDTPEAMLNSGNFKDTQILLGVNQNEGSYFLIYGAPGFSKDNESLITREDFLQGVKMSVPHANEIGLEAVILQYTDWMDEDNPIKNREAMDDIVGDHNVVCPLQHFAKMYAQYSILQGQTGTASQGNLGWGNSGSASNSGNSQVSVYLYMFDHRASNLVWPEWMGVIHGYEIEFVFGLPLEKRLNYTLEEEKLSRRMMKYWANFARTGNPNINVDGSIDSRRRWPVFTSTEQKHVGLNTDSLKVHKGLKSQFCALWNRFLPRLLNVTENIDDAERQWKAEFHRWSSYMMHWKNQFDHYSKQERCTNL

For the compound `O=C1c2ccccc2C(=O)N1CCCCCCNC1CCN(Cc2ccccc2)CC1` [Compound 2, 2-(6-(1-Benzylpiperidin-4-ylamino)hexyl)isoindoline-1,3-dione], the IC50 in assay [1] (setting [4]) came out at 53700 nM; in assay [2] (setting [5]), 24500 nM.

As for `O=C1c2ccccc2C(=O)N1CCCCCNCc1ccccc1F` [Compound 6, 2-(5-(2-fluorobenzylamino)pentyl)isoindoline-1,3-dione], the IC50 was 87.2 nM in assay [1] (setting [4]); 87 nM and 87.2 nM in assay [1] (IC50 AChE, Ellman's assay).

With `O=C1c2ccccc2C(=O)N1CCCNC1CCN(Cc2ccccc2)CC1` [Compound 1, 2-(3-(1-Benzylpiperidin-4-ylamino)propyl)isoindoline-1,3-dione], the IC50 in assay [1] (setting [4]) amounted to 18200 nM; in assay [2] (setting [5]) it was 22800 nM.

Regarding `CCN(CC)CCCCCCCN1C(=O)c2ccccc2C1=O` [Compound 8, 2-(7-diethylaminoheptyl)-isoindoline-1,3-dione], the IC50 in assay [3] (setting [6]) and in assay [3] (read-out: IC50 AChE) was 1070 nM in each case.

For the compound `O=C1c2ccccc2C(=O)N1CCCCCCNC1CCN(Cc2cccc(Cl)c2)CC1` [Compound 3, 2-(6-(1-(3-Chlorobenzyl)piperidin-4-ylamino)hexyl)isoindoline-1,3-dione], the IC50 turned out to be 44000 nM in assay [1] (setting [4]) and 7660 nM in assay [2].

Turning to `CCN(CC)CCCCCCN1C(=O)c2ccccc2C1=O` [Compound 9, 2-(6-diethylaminohexyl)-isoindoline-1,3-dione], the IC50 in assay [3] (setting [6]) and in assay [3] (read-out: IC50 AChE) was 1230 nM in each case.

Turning to `O=C1c2ccccc2C(=O)N1CCCCCCNCc1ccccc1` [Compound 4, 2-(6-(Benzylamino)hexyl)isoindoline-1,3-dione], the IC50 in assay [1] (setting [4]) was found to be 330 nM; in assay [1] (IC50 AChE, Ellman's assay), 330 nM.

For the compound `O=C1c2ccccc2C(=O)N1CCCCCNCc1ccccc1` [Compound 5, 2-(5-(Benzylamino)pentyl)isoindoline-1,3-dione], the IC50 came to 170 nM in assay [1] (setting [4]) and 170 nM in assay [1] (IC50 AChE, Ellman's assay).
